Source: patent US8841312B2, “Fused pyridine, pyrimidine and triazine compounds as cell cycle inhibitors” (Amgen Inc., priority 2007, dated 2014)

Target: Cdk4/CyclinD1 (Homo sapiens (Human), UniProt P11802)
Experiment: Cdk4 kinase inhibition assay with recombinant Cdk4/CyclinD1, Rb substrate, [33P]-ATP filter plate
Type: biochemical
Settings: 25 μM ATP, read-out: Cdk 4 IC50
Description: The Cdk4 and Cdk6 inhibitory activity of the compounds is measured with a kinase inhibition assay using recombinant Cdk4/CyclinD1 or Cdk6/CyclinD3 protein complexes. The protein substrate used in the assay is the retinoblastoma protein (Rb). The kinase reactions are carried out in a 96-well filter plate (MSDV N6B50, Millipore). […] The mixture is incubated at room temperature for 1 hour and the proteins precipitated with an equal volume of 20% TCA. The plates are washed with 10% TCA according to the manufacturer's instruction and dried at room temperature. The amount of the phosphorylated Rb is determined with a TopCount (PerkinElmer). The IC50 of a compound is determined by nonlinear regression curve fitting using software program Prism 5 (GraphPad Software).

Sequence of Cdk4/CyclinD1 (P11802 whole entry): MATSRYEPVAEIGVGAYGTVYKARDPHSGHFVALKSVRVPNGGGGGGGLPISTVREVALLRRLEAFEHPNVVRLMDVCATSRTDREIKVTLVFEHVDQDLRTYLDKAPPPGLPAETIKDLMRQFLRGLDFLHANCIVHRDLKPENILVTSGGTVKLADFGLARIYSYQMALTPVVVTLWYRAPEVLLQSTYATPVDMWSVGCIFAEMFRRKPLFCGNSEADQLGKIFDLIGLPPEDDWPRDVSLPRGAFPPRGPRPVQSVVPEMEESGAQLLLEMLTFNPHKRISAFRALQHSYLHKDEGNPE
Sequence of Cdk4/CyclinD1 (P24385 whole entry partner): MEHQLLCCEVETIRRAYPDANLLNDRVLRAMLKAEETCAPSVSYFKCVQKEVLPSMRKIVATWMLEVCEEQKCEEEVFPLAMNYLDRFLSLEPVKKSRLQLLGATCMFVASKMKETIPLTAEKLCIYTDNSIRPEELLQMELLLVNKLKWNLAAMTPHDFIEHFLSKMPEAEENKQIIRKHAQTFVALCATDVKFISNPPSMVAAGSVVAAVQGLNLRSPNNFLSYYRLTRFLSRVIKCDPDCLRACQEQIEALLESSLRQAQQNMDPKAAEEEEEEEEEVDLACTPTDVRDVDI

Row | SMILES | IC50
1 | CC[C@H](C)n1c2cnccc2c2cnc(Nc3ccc(N4CCNC(C)(C)C4)nn3)nc21 [Example 332] | 16 nM
2 | O[C@H]1CCC[C@@H]1n1c2cnccc2c2cnc(Nc3ccc(N4CCNCC4)cn3)nc21 [Example 398] | 330 nM
3 | CNC1CCN(c2ccc(Nc3ncc4c5ccncc5n([C@@H]5CCNC5)c4n3)nc2)CC1 [Example 340] | 370 nM
4 | COCCn1c2cnccc2c2cnc(Nc3ccc(N4CCC(N(C)C)CC4)nn3)nc21 [Example 315] | 1380 nM
5 | c1cc2c3cnc(Nc4ccc(N[C@@H]5CCNC5)nn4)nc3n(C3CCCC3)c2cn1 [Example 91] | 6.1 nM
6 | CNC1CCN(c2ccc(Nc3ncc4c5ccncc5n([C@H]5CCC[C@@H]5O)c4n3)nc2)CC1 [Example 400] | 301 nM
7 | C[C@H](CO)n1c2cnccc2c2cnc(Nc3ccc(N4CCC(N(C)C)CC4)cn3)nc21 [Example 376] | 50 nM
8 | CN1CCN(c2ccc(Nc3ncc4c5cc[nH]c(=O)c5n(C5CCCC5)c4n3)nn2)CC1 [Example 128] | 29 nM
9 | c1cncc(-c2ccc(Nc3ncc4c5ccncc5n(C5CCCC5)c4n3)nn2)c1 [Example 267, 9-Cyclopentyl-N-(6-(3-pyridinyl)-3-pyridazinyl)-9H-pyrido[4′,3′:4,5]pyrrolo[2,3-d]pyrimidin-2-amine] | 73 nM
10 | C[C@@H]1CN(c2ccc(Nc3ncc4c5ccncc5n(C5CCCC5)c4n3)nc2)CCN1 [Example 61] | 1.7 nM
11 | O=C1CN(c2ccc(Nc3ncc4c5ccncc5n(C5CCCC5)c4n3)nn2)CCN1 [Example 115] | 2.3 nM
12 | CN(C)C1CCN(c2ccc(Nc3ncc4c5cc[nH]c(=O)c5n(C5CCCC5)c4n3)nn2)CC1 [Example 127] | 5.3 nM
13 | Cc1nc(Nc2ncc3c4ccnc(Cl)c4n(C4CCCC4)c3n2)ccc1N1CCNCC1 [Example 155, 8-Chloro-9-cyclopentyl-N-(6-methyl-5-(1-piperazinyl)-2-pyridinyl)-9H-pyrido[4′,3′:4,5]pyrrolo[2,3-d]pyrimidin-2-amine] | 4.1 nM
14 | CC1(C)CN(c2ccc(Nc3ncc4c5ccncc5n([C@H]5CCC[C@H]5O)c4n3)nn2)CCN1 [Example 365] | 159 nM
15 | CC1CCN(c2ccc(Nc3ncc4c5ccncc5n(C5CCCC5)c4n3)nn2)C1 (stereo not shown) [Example 120] | 19 nM
16 | CN(C)C1CCN(c2cnc(Nc3ncc4c5ccncc5n(C5CCCC5)c4n3)cn2)CC1 [Example 85] | 20 nM

Row | SMILES | IC50
17 | CC(C)(O)CN1CCN(c2ccc(Nc3ncc4c5ccnc(F)c5n(C5CCCC5)c4n3)nc2)CC1 [Example 172, 1-(4-(6-((9-Cyclopentyl-8-fluoro-9H-pyrido[4′,3′:4,5]pyrrolo[2,3-d]pyrimidin-2-yl)amino)-3-pyridinyl)-1-piperazinyl)-2-methyl-2-propanol] | 5.6 nM
18 | CC(C)n1c2cnccc2c2cnc(Nc3ccc(N4CCNCC4)cn3)nc21 [Example 159, 9-(1-methylethyl)-N-(5-(1-piperazinyl)-2-pyridinyl)-9H-pyrido[4′,3′:4,5]pyrrolo[2,3-d]pyrimidin-2-amine] | 3 nM
19 | CC1(C)CN(c2ccc(Nc3ncc4c5ccncc5n([C@@H]5CCNC5)c4n3)nc2)CCN1 [Example 338] | 302 nM
20 | C[C@H](O)Cn1c2cnccc2c2cnc(Nc3ccc(N4CC[C@@H](O)C4)cn3)nc21 [Example 424] | 72 nM
21 | CC1(C)CN(c2ccc(Nc3ncc4c5ccncc5n(C5CCCC5)c4n3)nn2)CCN1 [Example 10] | 2.2 nM
22 | CN(C)C1CCN(c2ccc(Nc3ncc4c5ccncc5n([C@@H]5CCOC5)c4n3)nn2)CC1 [Example 391] | 184 nM
23 | C[C@@H](CO)n1c2cnccc2c2cnc(Nc3ccc(N4CC[C@@H](O)C4)nn3)nc21 [Example 374] | 86 nM
24 | CC(=O)OCC(=O)N1CCN(c2ccc(Nc3ncc4c5ccnc(F)c5n(C5CCCC5)c4n3)nc2)CC1 [Example 194, 2-(4-(6-((9-cyclopentyl-8-fluoro-9H-pyrido[4′,3′:4,5]pyrrolo[2,3-d]pyrimidin-2-yl)amino)-3-pyridinyl)-1-piperazinyl)-2-oxoethyl acetate] | 600 nM
25 | C[C@H](O)Cn1c2cnccc2c2cnc(Nc3ccc(N4CC[C@@H](O)C4)nn3)nc21 [Example 414] | 2.6 nM
26 | O[C@@H]1CCN(c2ccc(Nc3ncc4c5ccncc5n([C@H]5CCC[C@@H]5O)c4n3)nn2)C1 [Example 408] | 44 nM
27 | CNC1CCN(c2ccc(Nc3ncc4c5ccncc5n([C@@H]5CCOC5)c4n3)nc2)CC1 [Example 431] | 12 nM
28 | CC1CCN(c2cnc(Nc3ncc4c5ccncc5n(C5CCCC5)c4n3)cn2)C1 (stereo not shown) [Example 88] | 477 nM
29 | CNC1CCN(c2ccc(Nc3ncc4c5ccncc5n([C@H]5CCC[C@H]5O)c4n3)nc2)CC1 [Example 393] | 300 nM
30 | O[C@@H]1CCN(c2ccc(Nc3ncc4c5ccncc5n([C@@H]5CCOC5)c4n3)nn2)C1 [Example 392] | 219 nM
31 | C[C@@H](CO)n1c2cnccc2c2cnc(Nc3ccc(N4CC[C@@H](O)C4)cn3)nc21 [Example 368] | 284 nM
32 | CCC1CN(c2ccc(Nc3ncc4c5ccncc5n(C5CCCC5)c4n3)nn2)CCN1 (stereo not shown) [Example 121] | 4.3 nM

More lines, in order of falling IC50, values ahead:

Row | IC50 | SMILES
33 | 1000 nM | COCC(C)(C)n1c2cnccc2c2cnc(Nc3ccc(N4CCC(N(C)C)CC4)nn3)nc21 [Example 274, N-(6-(4-(dimethylamino)-1-piperidinyl)-3-pyridazinyl)-9-(2-methoxy-1,1-dimethylethyl)-9H-pyrido[4′,3′:4,5]pyrrolo[2,3-d]pyrimidin-2-amine]
34 | 590 nM | CN(C)C1CCN(c2ccc(Nc3ncc4c5ccncc5n(C5CCS(=O)(=O)CC5)c4n3)nn2)CC1 [Example 279, N-(6-(4-(dimethylamino)-1-piperidinyl)-3-pyridazinyl)-9-(1,1-dioxidotetrahydro-2H-thiopyran-4-yl)-9H-pyrido[4′,3′:4,5]pyrrolo[2,3-d]pyrimidin-2-amine]
35 | 300 nM | C[C@H]1CN(c2ccc(Nc3ncc4c5ccncc5n([C@@H]5CCNC5)c4n3)nc2)CCN1 [Example 339]
36 | 259 nM | C[C@@H](O)Cn1c2cnccc2c2cnc(Nc3ccc(N4CCNCC4)nn3)nc21 [Example 415]
37 | 177 nM | O=C(O)Cc1ccc(Nc2ncc3c4ccncc4n(C4CCCC4)c3n2)nc1 [Example 241, (6-((9-cyclopentyl-9H-pyrido[4′,3′:4,5]pyrrolo[2,3-d]pyrimidin-2-yl)amino)-3-pyridinyl)acetic acid]
38 | 77 nM | C[C@H](O)Cn1c2cnccc2c2cnc(Nc3ccc(N4CCNCC4)cn3)nc21 [Example 421]
39 | 57 nM | CN(C)C1CCN(c2ccc(Nc3ncc4c5ccncc5n([C@H]5CCC[C@@H]5O)c4n3)nc2)CC1 [Example 399]
40 | 43 nM | COC1CCN(c2cnc(Nc3ncc4c5ccncc5n(C5CCCC5)c4n3)cn2)C1 (stereo not shown) [Example 87]
41 | 40 nM | C[C@H](CO)n1c2cnccc2c2cnc(Nc3ccc(N4CCNCC4)cn3)nc21 [Example 375]
42 | 22 nM | CC[C@H](C)n1c2cnccc2c2cnc(Nc3ccc(N4CC[C@@H](O)C4)nn3)nc21 [Example 337]
43 | 20 nM | CN(C)C1CCN(c2ccc(Nc3ncc4c5ccnc(Cl)c5n(C5CCCC5)c4n3)nn2)CC1 [Example 154, 8-Chloro-9-cyclopentyl-N-(6-(4-(dimethylamino)-1-piperidinyl)-3-pyridazinyl)-9H-pyrido[4′,3′:4,5]pyrrolo[2,3-d]pyrimidin-2-amine]
44 | 14 nM | CC1(C)CCC(n2c3cnccc3c3cnc(Nc4ccc(N5CCC(N6CCCC6)CC5)cn4)nc32)CC1 [Example 206, 9-(4,4-dimethylcyclohexyl)-N-(5-(4-(1-pyrrolidinyl)-1-piperidinyl)-2-pyridinyl)-9H-pyrido[4′,3′:4,5]pyrrolo[2,3-d]pyrimidin-2-amine]
45 | 11 nM | c1cc2c3cnc(Nc4ccc(OC5CCNCC5)nn4)nc3n(C3CCCC3)c2cn1 [Example 268, 9-Cyclopentyl-N-(6-(4-piperidinyloxy)-3-pyridazinyl)-9H-pyrido[4′,3′:4,5]pyrrolo[2,3-d]pyrimidin-2-amine]
46 | 11 nM | COc1nccc2c3cnc(Nc4ccc(N5CCC(N6CCCC6)CC5)cn4)nc3n(C3CCC(C)(C)CC3)c12 [Example 209, 9-(4,4-dimethylcyclohexyl)-8-methoxy-N-(5-(4-(1-pyrrolidinyl)-1-piperidinyl)-2-pyridinyl)-9H-pyrido[4′,3′:4,5]pyrrolo[2,3-d]pyrimidin-2-amine]
47 | 9.2 nM | C[C@H]1CN(c2cnc(Nc3ncc4c5ccncc5n(C5CCCC5)c4n3)cn2)CCN1 [Example 81]
48 | 7.2 nM | c1cc2c3cnc(Nc4ccc(N5CCC6(CCCN6)CC5)nn4)nc3n(C3CCCC3)c2cn1 [Example 232, 9-cyclopentyl-N-(6-(1,8-diazaspiro[45]dec-8-yl)-3-pyridazinyl)-9H-pyrido[4′,3′:4,5]pyrrolo[2,3-d]pyrimidin-2-amine]
49 | 5 nM | C[C@H]1CNCCN1c1ccc(Nc2ncc3c4ccnc(F)c4n(C4CCCC4)c3n2)nc1 [Example 177, 9-Cyclopentyl-8-fluoro-N-(5-((2S)-2-methyl-1-piperazinyl)-2-pyridinyl)-9H-pyrido[4′,3′:4,5]pyrrolo[2,3-d]pyrimidin-2-amine]
50 | 4.4 nM | OCCN1CCN(c2ccc(Nc3ncc4c5ccncc5n(C5CCCC5)c4n3)nc2)CC1 [Example 191, 2-(4-(6-((9-Cyclopentyl-9H-pyrido[4′,3′:4,5]pyrrolo[2,3-d]pyrimidin-2-yl)amino)-3-pyridinyl)-1-piperazinyl)ethanol]
51 | 3.4 nM | C[C@H]1CN(c2ccc(Nc3ncc4c5ccnc(F)c5n(C5CCCC5)c4n3)nc2)CCN1 [Example 179, 9-cyclopentyl-8-fluoro-N-(5-((3S)-3-methyl-1-piperazinyl)-2-pyridinyl)-9H-pyrido-[4′,3′:4,5]pyrrolo[2,3-d]pyrimidin-2-amine]
52 | 3.4 nM | COC1CCN(c2ccc(Nc3ncc4c5ccncc5n(C5CCCC5)c4n3)nn2)C1 (stereo not shown) [Example 110]
